Results reported in patent publication USRE48461E1, “Modulation of androgen receptor expression” (Ionis Pharmaceuticals, Inc., priority 2012, dated 2021).
Oligonucleotides are written 5' to 3', each unit as a sugar letter and its base; * is a phosphorothioate linkage, no mark a phosphodiester; rarer units and linkages stand in square brackets, end groups in braces. Plain capitals give the bases only. e = 2'-O-(2-methoxyethyl) (MOE); k = constrained ethyl (cEt); [5mC] = 5-methylcytosine; d = 2'-deoxy (DNA)

Legend:
AR mRNA [1] = assay: Antisense inhibition of human AR in HuVEC cells, single concentration (electroporation, qRT-PCR RTS3559); assay type: cell-based
Experimental: Antisense oligonucleotides were designed targeting an AR nucleic acid and were tested for their effects on AR mRNA in vitro. The antisense oligonucleotides were tested in a series of experiments that had similar culture conditions. […] Human primer probe set RTS3559 (forward sequence [NT], designated herein as SEQ ID NO: 9; reverse sequence [NT], designated herein as SEQ ID NO: 10; probe sequence [NT], designated herein as SEQ ID NO: 11) was used to measure mRNA levels. AR mRNA levels were adjusted according to total RNA content, as measured by RIBOGREEN®. […] A total of 155 oligonucleotides were tested. Additional antisense oligonucleotides were designed targeting an AR nucleic acid and were tested for their effects on AR mRNA in vitro. […] Human primer probe set RTS3559 was used to measure mRNA levels. AR mRNA levels were adjusted according to total RNA content, as measured by RIBOGREEN®. […] A total of 82 oligonucleotides were tested. Additional antisense oligonucleotides were designed targeting an AR nucleic acid and were tested for their effects on AR mRNA in vitro. […] Human primer probe set RTS3559 was used to measure mRNA levels. AR mRNA levels were adjusted according to total RNA content, as measured by RIBOGREEN®. […] A total of 40 oligonucleotides were tested. Additional antisense oligonucleotides were designed targeting an AR nucleic acid and were tested for their effects on AR mRNA in vitro. […] Human primer probe set RTS3559 was used to measure mRNA levels. AR mRNA levels were adjusted according to total RNA content, as measured by RIBOGREEN®. […] A total of 75 oligonucleotides were tested. Additional antisense oligonucleotides were designed targeting an AR nucleic acid and were tested for their effects on AR mRNA in vitro. […] Human primer probe set RTS3559 was used to measure mRNA levels. AR mRNA levels were adjusted according to total RNA content, as measured by RIBOGREEN®. […] A total of 616 oligonucleotides were tested. Additional antisense oligonucleotides were designed targeting an AR nucleic acid and were tested for their effects on AR mRNA in vitro. […] Human primer probe set RTS3559 was used to measure mRNA levels. AR mRNA levels were adjusted according to total RNA content, as measured by RIBOGREEN®. […] A total of 385 oligonucleotides were tested.

AR mRNA [2] = assay: Dose-dependent antisense inhibition of human AR in HuVEC cells (electroporation, qRT-PCR RTS3559, IC50); assay type: cell-based; details: HuVEC
Experimental: (§1) After a treatment period of approximately 16 hours, RNA was isolated from the cells and AR mRNA levels were measured by quantitative real-time PCR. Human AR primer probe set RTS3559 was used to measure mRNA levels. AR mRNA levels were adjusted according to total RNA content, as measured by RIBOGREEN®. […] The antisense oligonucleotides were tested in a series of experiments that had similar culture conditions.
as §1, §1, §1, §1
(§2) After a treatment period of approximately 16 hours, RNA was isolated from the cells and AR mRNA levels were measured by quantitative real-time PCR. Human AR primer probe set RTS3559 was used to measure mRNA levels. AR mRNA levels were adjusted according to total RNA content, as measured by RIBOGREEN®.
as §2

[3] = Table 30, electroporation, approximately 16 hours
[4] = Table 35, electroporation, approximately 16 hours
[5] = Table 29, electroporation, approximately 16 hours
[6] = Table 20, 500 nM oligonucleotide, electroporation, approximately 24 hours, relative to untreated control
[7] = Table 33, electroporation, approximately 16 hours
[8] = Table 32, electroporation, approximately 16 hours

Substance: 583745 (antisense k[5mC]*kG*k[5mC]*dT*d[5mC]*dG*d[5mC]*dG*dG*d[5mC]*d[5mC]*dT*d[5mC]*kT*kG*kG) [compound 583745]
- % inhibition (AR mRNA [1]; 500 nM ASO, ~24 h, Table 18): 40%
- percent inhibition of AR, 46.9 nM (AR mRNA [2]; [3]): 19%
- percent inhibition of AR, 187.5 nM (AR mRNA [2]; [3]): 51%
- percent inhibition of AR, 750.0 nM (AR mRNA [2]; [3]): 68%
- percent inhibition of AR, 3000.0 nM (AR mRNA [2]; [3]): 77%
- IC50 (AR mRNA [2]; [3]): 270 nM

Substance: 584162 (kT*kG*kG*dA*dT*dT*dG*dT*dA*dA*dA*dT*dT*kA*k[5mC]*kG; antisense) [compound 584162]
- % inhibition (AR mRNA [1]; Table 24, 1,000 nM oligonucleotide, electroporation, approximately 24 hours, relative to untreated control): 82%
- percent inhibition of AR, 46.9 nM (AR mRNA [2]; [4]): 24%
- percent inhibition of AR, 187.5 nM (AR mRNA [2]; [4]): 45%
- percent inhibition of AR, 750.0 nM (AR mRNA [2]; [4]): 80%
- percent inhibition of AR, 3000.0 nM (AR mRNA [2]; [4]): 92%
- IC50 (AR mRNA [2]; [4]): 180 nM

Substance: 583542 (antisense kA*k[5mC]*kA*dG*d[5mC]*dA*d[5mC]*dT*dG*dG*dA*dG*d[5mC]*kG*kG*k[5mC]) [compound 583542]
- % inhibition (AR mRNA [1]; 500 nM ASO, ~24 h, Table 16): 45%
- percent inhibition of AR, 46.9 nM (AR mRNA [2]; [5]): 9%
- percent inhibition of AR, 187.5 nM (AR mRNA [2]; [5]): 28%
- percent inhibition of AR, 750.0 nM (AR mRNA [2]; [5]): 47%
- percent inhibition of AR, 3000.0 nM (AR mRNA [2]; [5]): 66%
- IC50 (AR mRNA [2]; [5]): 900 nM

Substance: 583853 (kT*kG*k[5mC]*dA*dT*dT*d[5mC]*dG*dG*d[5mC]*d[5mC]*dA*dA*kT*kG*kG; antisense) [compound 583853]
- % inhibition (AR mRNA [1]; [6]): 33%
- percent inhibition of AR, 46.9 nM (AR mRNA [2]; [7]): 24%
- percent inhibition of AR, 187.5 nM (AR mRNA [2]; [7]): 51%
- percent inhibition of AR, 750.0 nM (AR mRNA [2]; [7]): 70%
- percent inhibition of AR, 3000.0 nM (AR mRNA [2]; [7]): 80%
- IC50 (AR mRNA [2]; [7]): 210 nM

Substance: 560133 (antisense kA*kT*kG*dG*dT*dT*dG*dA*dT*dT*dT*dA*kA*kT*kG*eG) [compound 560133]
- % inhibition (AR mRNA [1]; 1,000 nM ASO, ~24 h, Table 13): 53%
- percent inhibition of AR (AR mRNA [2]; 31.25 nM, ~16 h, Table 14): 17%
- percent inhibition of AR (AR mRNA [2]; 62.5 nM, ~16 h, Table 14): 15%
- percent inhibition of AR (AR mRNA [2]; 125.0 nM, ~16 h, Table 14): 24%
- percent inhibition of AR (AR mRNA [2]; 500.0 nM, ~16 h, Table 14): 58%
- percent inhibition of AR (AR mRNA [2]; 1000.0 nM, ~16 h, Table 14): 79%
- IC50 (AR mRNA [2]; ~16 h, Table 14): 336 nM

Substance: 583836 (k[5mC]*k[5mC]*kG*dA*dA*dG*d[5mC]*dT*dG*dT*dT*d[5mC]*d[5mC]*k[5mC]*k[5mC]*kT; antisense) [compound 583836]
- % inhibition (AR mRNA [1]; [6]): 37%
- percent inhibition of AR, 46.9 nM (AR mRNA [2]; [8]): 11%
- percent inhibition of AR, 187.5 nM (AR mRNA [2]; [8]): 27%
- percent inhibition of AR, 750.0 nM (AR mRNA [2]; [8]): 67%
- percent inhibition of AR, 3000.0 nM (AR mRNA [2]; [8]): 86%
- IC50 (AR mRNA [2]; [8]): 390 nM

Substance: 583892 (k[5mC]*kA*kG*d[5mC]*d[5mC]*dT*dA*dG*dG*d[5mC]*dT*d[5mC]*dT*k[5mC]*kG*k[5mC]; antisense) [compound 583892]
- % inhibition (AR mRNA [1]; [6]): 35%
- percent inhibition of AR, 46.9 nM (AR mRNA [2]; [7]): 22%
- percent inhibition of AR, 187.5 nM (AR mRNA [2]; [7]): 38%
- percent inhibition of AR, 750.0 nM (AR mRNA [2]; [7]): 68%
- percent inhibition of AR, 3000.0 nM (AR mRNA [2]; [7]): 83%
- IC50 (AR mRNA [2]; [7]): 270 nM
